Results reported in patent publication US10004701B2, “Methods and compositions for treating infection” (UNIVERSITY OF ROCHESTER, priority 2012, dated 2018).
Structures can show the parent of a compound that is named as a salt. Where two headings read alike, the source gives them in different places.

How the values were obtained:
Assay in all cases: AK assay 384-well format, Prestwick library screening
E. coli = type: cell-based, Escherichia coli; settings: for fold induction at 50 µM: Escherichia coli, 3 h
E. faecium = type: cell-based, Enterococcus faecium; settings: for fold induction at 50 µM: Enterococcus faecium, 3 h
P. aeruginosa = type: cell-based, Pseudomonas aeruginosa; settings: for fold induction at 50 µM: Pseudomonas aeruginosa, 3 h
E. cloacae = type: cell-based, Enterobacter cloacae; settings: for fold induction at 50 µM: Enterobacter cloacae, 3 h
[1] = test system: S. aureus strain USA300-0114; type: cell-based, Staphylococcus aureus; settings: for fold induction at 50 µM: Staphylococcus aureus, USA300, 3 h
K. pneumoniae = type: cell-based, Klebsiella pneumoniae; settings: for fold induction at 50 µM: Klebsiella pneumoniae, 3 h
[2] = test system: A. baumannii strain 98-37-09; type: cell-based, Acinetobacter baumannii; settings: for fold induction at 50 µM: Acinetobacter baumannii, 983709, 3 h
[3] = 50 μM final drug concentration, planktonic, cutoff for positive 3-fold increase, read-out: AK-based Prestwick Library Screening Results, E. coli (fold increase in extracellular AK activity)
[4] = 50 μM final drug concentration, planktonic, cutoff for positive 3-fold increase, read-out: AK-based Prestwick Library Screening Results, E. faecium (fold increase in extracellular AK activity)
[5] = 50 μM final drug concentration, planktonic, cutoff for positive 3-fold increase, read-out: AK-based Prestwick Library Screening Results, P. aeruginosa (fold increase in extracellular AK activity)
[6] = 50 μM final drug concentration, planktonic, cutoff for positive 3-fold increase, read-out: AK-based Prestwick Library Screening Results, E. cloacae (fold increase in extracellular AK activity)
[7] = 50 μM final drug concentration, planktonic, cutoff for positive 3-fold increase, read-out: AK-based Prestwick Library Screening Results, S. aureus (fold increase in extracellular AK activity)
[8] = 50 μM final drug concentration, planktonic, cutoff for positive 3-fold increase, read-out: AK-based Prestwick Library Screening Results, K. pneumoniae (fold increase in extracellular AK activity)
[9] = 50 μM final drug concentration, planktonic, cutoff for positive 3-fold increase, read-out: AK-based Prestwick Library Screening Results, A. baumannii (fold increase in extracellular AK activity)
[10] = 50 μM final drug concentration, 384-well format, cutoff for positive-scoring molecules 3-fold increase

Structure (SMILES): CCCCC[C@H](O)/C=C/[C@H]1[C@H](O)CC(=O)[C@@H]1CCCCCCC(=O)O [Alprostadil]
- fold induction at 50 µM (E. coli; planktonic E. coli, 50 μM final drug concentration, positive cutoff 3-fold increase, read-out: AK-based Prestwick library screening result, E. coli (fold increase in extracellular AK activity)): 1.3
- fold induction at 50 µM (E. faecium; planktonic E. faecium, 50 μM final drug concentration, positive cutoff 3-fold increase, read-out: AK-based Prestwick library screening result, E. faecium (fold increase in extracellular AK activity)): 1
- fold induction at 50 µM (P. aeruginosa; planktonic P. aeruginosa, 50 μM final drug concentration, positive cutoff 3-fold increase, read-out: AK-based Prestwick library screening result, P. aeruginosa (fold increase in extracellular AK activity)): 1.1
- fold induction at 50 µM (E. cloacae; planktonic E. cloacae, 50 μM final drug concentration, positive cutoff 3-fold increase, read-out: AK-based Prestwick library screening result, E. cloacae (fold increase in extracellular AK activity)): 1.4
- fold induction at 50 µM ([1]; planktonic S. aureus, 50 μM final drug concentration, positive cutoff 3-fold increase, read-out: AK-based Prestwick library screening result, S. aureus (fold increase in extracellular AK activity)): 1.1
- fold induction at 50 µM (K. pneumoniae; planktonic K. pneumoniae, 50 μM final drug concentration, positive cutoff 3-fold increase, read-out: AK-based Prestwick library screening result, K. pneumoniae (fold increase in extracellular AK activity)): 1.1
- fold induction at 50 µM ([2]; planktonic A. baumannii, 50 μM final drug concentration, positive cutoff 3-fold increase, read-out: AK-based Prestwick library screening result, A. baumannii (fold increase in extracellular AK activity)): 1

Structure (SMILES): C=CCSCC1Nc2cc(Cl)c(S(N)(=O)=O)cc2S(=O)(=O)N1 (centres unmarked) [Althiazide]
- fold induction at 50 µM (E. coli; [3]): 0.4
- fold induction at 50 µM (E. faecium; [4]): 1
- fold induction at 50 µM (P. aeruginosa; [5]): 0.4
- fold induction at 50 µM (E. cloacae; [6]): 0.3
- fold induction at 50 µM [1, 7]: 0.4
- fold induction at 50 µM (K. pneumoniae; [8]): 0.4
- fold induction at 50 µM [2, 9]: 0.4

Structure (SMILES): CN(C)c1nc(N(C)C)nc(N(C)C)n1 [Altretamine]
- fold induction at 50 µM (E. coli; 50 μM final drug concentration, cutoff for positive-scoring molecules 3-fold increase, read-out: AK-based Prestwick Library Screening Results, E. coli (fold increase in extracellular AK activity)): 1.3
- fold induction at 50 µM (E. faecium; 50 μM final drug concentration, cutoff for positive-scoring molecules 3-fold increase, read-out: AK-based Prestwick Library Screening Results, E. faecium (fold increase in extracellular AK activity)): 1
- fold induction at 50 µM (P. aeruginosa; 50 μM final drug concentration, cutoff for positive-scoring molecules 3-fold increase, read-out: AK-based Prestwick Library Screening Results, P. aeruginosa (fold increase in extracellular AK activity)): 1.2
- fold induction at 50 µM (E. cloacae; 50 μM final drug concentration, cutoff for positive-scoring molecules 3-fold increase, read-out: AK-based Prestwick Library Screening Results, E. cloacae (fold increase in extracellular AK activity)): 1.4
- fold induction at 50 µM ([1]; 50 μM final drug concentration, cutoff for positive-scoring molecules 3-fold increase, read-out: AK-based Prestwick Library Screening Results, S. aureus (fold increase in extracellular AK activity)): 1.1
- fold induction at 50 µM (K. pneumoniae; 50 μM final drug concentration, cutoff for positive-scoring molecules 3-fold increase, read-out: AK-based Prestwick Library Screening Results, K. pneumoniae (fold increase in extracellular AK activity)): 1
- fold induction at 50 µM ([2]; 50 μM final drug concentration, cutoff for positive-scoring molecules 3-fold increase, read-out: AK-based Prestwick Library Screening Results, A. baumannii (fold increase in extracellular AK activity)): 1.3

Structure (SMILES): Nc1c(Br)cc(Br)cc1CN[C@H]1CC[C@H](O)CC1 [Ambroxol hydrochloride]
- fold induction at 50 µM (E. coli; planktonic E. coli, 50 μM final drug concentration, cutoff for positive-scoring molecules 3-fold increase, read-out: AK-based Prestwick Library Screening Results, E. coli (increase in extracellular AK activity)): 1
- fold induction at 50 µM (E. faecium; planktonic E. faecium, 50 μM final drug concentration, cutoff for positive-scoring molecules 3-fold increase, read-out: AK-based Prestwick Library Screening Results, E. faecium (increase in extracellular AK activity)): 1
- fold induction at 50 µM (P. aeruginosa; planktonic P. aeruginosa, 50 μM final drug concentration, cutoff for positive-scoring molecules 3-fold increase, read-out: AK-based Prestwick Library Screening Results, P. aeruginosa (increase in extracellular AK activity)): 1.2
- fold induction at 50 µM (E. cloacae; planktonic E. cloacae, 50 μM final drug concentration, cutoff for positive-scoring molecules 3-fold increase, read-out: AK-based Prestwick Library Screening Results, E. cloacae (increase in extracellular AK activity)): 1.5
- fold induction at 50 µM ([1]; planktonic S. aureus, 50 μM final drug concentration, cutoff for positive-scoring molecules 3-fold increase, read-out: AK-based Prestwick Library Screening Results, S. aureus (increase in extracellular AK activity)): 1
- fold induction at 50 µM (K. pneumoniae; planktonic K. pneumoniae, 50 μM final drug concentration, cutoff for positive-scoring molecules 3-fold increase, read-out: AK-based Prestwick Library Screening Results, K. pneumoniae (increase in extracellular AK activity)): 1
- fold induction at 50 µM ([2]; planktonic A. baumannii, 50 μM final drug concentration, cutoff for positive-scoring molecules 3-fold increase, read-out: AK-based Prestwick Library Screening Results, A. baumannii (increase in extracellular AK activity)): 1.2

Structure (SMILES): Cc1c(N(C)C)c(=O)n(-c2ccccc2)n1C [Amidopyrine]
- AK-based Prestwick Library Screening Results, E. coli (increase in extracellular AK activity) (E. coli; [10]): 0.5
- AK-based Prestwick Library Screening Results, E. faecium (increase in extracellular AK activity) (E. faecium; [10]): 0.9
- AK-based Prestwick Library Screening Results, P. aeruginosa (increase in extracellular AK activity) (P. aeruginosa; [10]): 0.4
- AK-based Prestwick Library Screening Results, E. cloacae (increase in extracellular AK activity) (E. cloacae; [10]): 0.4
- AK-based Prestwick Library Screening Results, S. aureus (increase in extracellular AK activity) [1, 10]: 0.4
- AK-based Prestwick Library Screening Results, K. pneumoniae (increase in extracellular AK activity) (K. pneumoniae; [10]): 0.5
- AK-based Prestwick Library Screening Results, A. baumannii (increase in extracellular AK activity) [2, 10]: 0.4

Structure (SMILES): NCC[C@H](O)C(=O)N[C@@H]1C[C@H](N)[C@@H](O[C@H]2O[C@H](CN)[C@@H](O)[C@H](O)[C@H]2O)[C@H](O)[C@H]1O[C@H]1O[C@H](CO)[C@@H](O)[C@H](N)[C@H]1O [Amikacin hydrate]
- fold induction at 50 µM (E. coli; [3]): 22.1
- fold induction at 50 µM (E. faecium; [4]): 1
- fold induction at 50 µM (P. aeruginosa; [5]): 14.2
- fold induction at 50 µM (E. cloacae; [6]): 4.9
- fold induction at 50 µM [1, 7]: 1.3
- fold induction at 50 µM (K. pneumoniae; [8]): 6.2
- fold induction at 50 µM [2, 9]: 7.6

Structure (SMILES): N=C(N)NC(=O)c1nc(Cl)c(N)nc1N [Amiloride hydrochloride dihydrate]
- fold induction at 50 µM (E. coli; 50 μM final drug concentration, 384-well format, cutoff for positive-scoring molecules 3-fold increase, read-out: AK-based Prestwick Library Screening Results, E. coli (increase in extracellular AK activity)): 0.5
- fold induction at 50 µM (E. faecium; 50 μM final drug concentration, 384-well format, cutoff for positive-scoring molecules 3-fold increase, read-out: AK-based Prestwick Library Screening Results, E. faecium (increase in extracellular AK activity)): 0.8
- fold induction at 50 µM (P. aeruginosa; 50 μM final drug concentration, 384-well format, cutoff for positive-scoring molecules 3-fold increase, read-out: AK-based Prestwick Library Screening Results, P. aeruginosa (increase in extracellular AK activity)): 0.3
- fold induction at 50 µM (E. cloacae; 50 μM final drug concentration, 384-well format, cutoff for positive-scoring molecules 3-fold increase, read-out: AK-based Prestwick Library Screening Results, E. cloacae (increase in extracellular AK activity)): 0.4
- fold induction at 50 µM ([1]; 50 μM final drug concentration, 384-well format, cutoff for positive-scoring molecules 3-fold increase, read-out: AK-based Prestwick Library Screening Results, S. aureus (increase in extracellular AK activity)): 0.4
- fold induction at 50 µM (K. pneumoniae; 50 μM final drug concentration, 384-well format, cutoff for positive-scoring molecules 3-fold increase, read-out: AK-based Prestwick Library Screening Results, K. pneumoniae (increase in extracellular AK activity)): 0.4
- fold induction at 50 µM ([2]; 50 μM final drug concentration, 384-well format, cutoff for positive-scoring molecules 3-fold increase, read-out: AK-based Prestwick Library Screening Results, A. baumannii (increase in extracellular AK activity)): 0.4

Structure (SMILES): NCCCCCC(=O)O [Aminocaproic acid]
- fold induction at 50 µM (E. coli; read-out: AK-based Prestwick Library Screening Results, E. coli (fold increase in extracellular AK activity)): 1.2
- fold induction at 50 µM (E. faecium; read-out: AK-based Prestwick Library Screening Results, E. faecium (fold increase in extracellular AK activity)): 1.1
- fold induction at 50 µM (P. aeruginosa; read-out: AK-based Prestwick Library Screening Results, P. aeruginosa (fold increase in extracellular AK activity)): 1.1
- fold induction at 50 µM (E. cloacae; read-out: AK-based Prestwick Library Screening Results, E. cloacae (fold increase in extracellular AK activity)): 1.6
- fold induction at 50 µM ([1]; read-out: AK-based Prestwick Library Screening Results, S. aureus (fold increase in extracellular AK activity)): 1.2
- fold induction at 50 µM (K. pneumoniae; read-out: AK-based Prestwick Library Screening Results, K. pneumoniae (fold increase in extracellular AK activity)): 1.2
- fold induction at 50 µM ([2]; read-out: AK-based Prestwick Library Screening Results, A. baumannii (fold increase in extracellular AK activity)): 1.3
